Measurements: US4283422A (priority 1979, dated 1981)
Counter-ions that a name gives are not always drawn. Like-named read-outs stand apart in the source and are kept apart here.

What was measured:
MDCK cells = conditions: 3 days, microscopic CTE
in vitro = conditions: dog, mdck
[1] = tested on: Influenza A/PR/3/34 (HO, Nl) strain; test: microbe, parasite or virus in culture; type: cell-based; conditions: for HA-titer / MIC: MDCK cells; for HA-titer: 34° C., 3 days, control 256; for MIC: 72 h, Influenza virus; for inhibitory effects on Influenza virus growth: comparison of the two compounds, in words
Newcastle disease virus = conditions: Koji Aigami et al., J. of Medicinal Chemistry, vol. 19, 536 (1976); cited from earlier work

With `CN(C)C12CCCC3CC(CCC31)C2` (stereo not shown) the Cytotoxicity (MDCK cells; 25.0 mcg/ml) was “(±) (CTE is less than 10% of cells.)”, the Cytotoxicity (MDCK cells; 50.0 mcg/ml) was “(+) (CTE is more than 10% and less than 50% of cells.)” and the MNTC at 72 h (in vitro) was 25 µg/mL. The HA-titer ([1]; 12.5 mcg/ml) was 64, the HA-titer ([1]; 25.0 mcg/ml) was 64 and the HA-titer ([1]; 50.0 mcg/ml) was less than 4. The MIC [1] was less than 12.5 µg/mL and the “inhibitory effects on Influenza virus growth” value [1] was “equivalent inhibitory effects on Influenza virus growth”.
In the case of `NC12CCCC3CC(CCC31)C2` (stereo not shown) [3-amino-4-homoisotwistane hydrochloride], the “antiviral activity against Newcastle disease virus” value (Newcastle disease virus) is listed as “have antiviral activity against Newcastle disease virus”.
With `NC12CC3CC(CC(C3)C1)C2` [Amantadine hydrochloride] the Cytotoxicity (MDCK cells; 12.5 mcg/ml) was “(±) (CTE is less than 10% of cells.)”, the Cytotoxicity (MDCK cells; 25.0 mcg/ml) was “(+) (CTE is more than 10% and less than 50% of cells.)” and the MNTC at 72 h (in vitro) was 12.5 µg/mL. For the same molecule, the HA-titer ([1]; 12.5 mcg/ml) was 64, the HA-titer ([1]; 25.0 mcg/ml) was less than 4 and the MIC [1] was less than 12.5 µg/mL. For the same molecule, the “inhibitory effects on Influenza virus growth” value [1] was “equivalent inhibitory effects on Influenza virus growth”.
